We go through 15 molecules from patent US9233978B2, “6-fused heteroaryldihydropyrimidines for the treatment and prophylaxis of hepatitis B virus infection” (Hoffmann-La Roche Inc., priority 2014, dated 2016).

Data set [1] deals with HBV. The experiment in a line: Anti-HBV activity in vitro, HepG2.2.15 cells, extracellular HBV DNA by qPCR. Conditions: Hepatitis B virus, HepG2.2.15, 120 h, HepG2.2.15 cells; HBV replication inhibited by 50%, extracellular HBV DNA by qPCR; five days after compound treatment; read-out: EC50. It counts as cell-based. Put shortly:
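HBV-producing HepG2.2.15 cells were seeded and left overnight at 37 °C, then treated with half-log serial compound dilutions at a final 0.5% DMSO. After 5 days, viral DNA was extracted from the supernatant and extracellular HBV DNA was quantified by qPCR.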
A general note: In qPCR the cycle at which signal appears reflects the starting amount.

The nature of data set [2]: Cytotoxicity in HepDE19 cells (CCK-8) and selectivity index. The format is cell-based. Conditions: human, HepDE19 cells; CCK-8 cell viability; five days after treatment. An excerpt: (§1) HepG2.2.15 and HepDE19 are stably-transfected cell lines containing the HBV genome. Both cell lines are derived from the hepatoblastoma cell line Hep G2 (American Type Culture Collection, ATCC® HB-8065™) by the published procedures described in references: MA Selles et al. Proc. Natl. Acad. Sci. USA 1987, 84, 1005-1009 and H Guo et al. Journal of Virology 2007, 81, 12472-12484, respectively. Both cell lines were maintained in Dulbecco's modified Eagle's medium (DMEM)-F12 medium supplemented with 10% fetal bovine serum, 100 U/mL penicillin, 100 μg/mL streptomycin, and 0.5 mg/mL of G418.
(§2) HepDE19 cells were seeded into 96-well plates (5×10^3 cells per well) and treated with compounds for EC50 determination. Five days after treatment, cell viability was measured by addition of 20 μL of CCK-8 reagent. Two hours after incubation at 37° C., the absorbance at wavelengths of 450 nm and 630 nm (OD450 and OD630) was recorded by a plate reader. The concentration results in the death of 50% of the host cells (CC50) of each compound were determined.
(§3) The relative effectiveness of the compound in inhibiting viral replication compared to inducing cell death was defined as the selectivity index (CC50 value/EC50 value). Based on CC50 and EC50 data, selectivity indexes were determined.

In data set [3] the test system is HepDE19 cells. The data set is described as above. It counts as cell-based. To be noted: CC50 (HepDE19) value / EC50 (HepG2.2.15) value.
Text: as §1, §2, §3

A short description of data set [4]: Lysa solubility. The format is physicochemical. To be noted: 0.05 M phosphate buffer (pH 6.5). An outline of the steps: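 Duplicate samples dried from 10 mM DMSO stocks, taken up in 0.05 M phosphate buffer pH 6.5, stirred 1 h, shaken 2 h and left overnight. Filtrate and 1/10 dilution quantified by direct UV or HPLC-UV, in μg/mL; above 80% of the calculated maximum, reported as greater than that value.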

The nature of data set [5]: Human microsomal metabolic stability. The format is in vitro ADME. Conditions: human microsomes 0.5 mg/mL, 1 μM test compound, NADPH, 37° C., pH 7.4, 0-30 minutes. On the procedure: Human Microsomes (BD Gentest) were preincubated with test compound for 10 minutes at 37° C. in 100 mM phosphate buffer, pH 7.4. The reactions were initiated by adding NADPH or NADPH regenerating system to give a final incubation volume of 400 μL. For NADPH system, the final incubations contained 1 μM test compound, 0.5 mg/mL liver microsomal protein, 1 mM NADPH in 100 mM phosphate buffer, pH 7.4. For the NADPH regenerating system, the final incubations contained 1 μM test compound, 0.5 mg/mL liver microsomal protein, 3 mM glucose 6-phosphate, 1 mM NADP, 3 mM MgCl2 and 0.05 mg/mL glucose 6-phosphate dehydrogenase in 100 mM phosphate buffer, pH 7.4. After incubation times of 0, 3, 6, 9, 15 and 30 minutes at 37° C., 1 sample was obtained from each time point and 50 μL of each sample was removed and transferred to 150 μL of methanol solution which was maintained at 4° C. and contained 2 μM tolbutamide as internal standard. Following precipitation and centrifugation, the amount of compound remaining in the samples were determined by LC-MS/MS. Controls of no NADPH or no NADPH regenerating system at zero and 30 minutes were also prepared and analyzed.

In general, EC50 refers to the concentration giving half of the maximal effect. For orientation: CC50 means the concentration giving 50% cytotoxicity. A higher CC50 goes with better tolerance by the cells. Broadly, the thermodynamic solubility is the concentration in solution at equilibrium with solid.

Molecules are shown by their SMILES. In brackets after ≈: the same amount, converted by molar mass.

For the molecule `CCOC(=O)C1=C(CN2CCN3C(=O)N(CC(C)(C)C(=O)O)C[C@@H]3C2)NC(c2nc(C)cs2)=N[C@H]1c1cccc(F)c1Cl` [Example 98, 3-[(8aS)-7-[[(4R)-4-(2-chloro-3-fluoro-phenyl)-5-ethoxycarbonyl-2-(4-methylthiazol-2-yl)-1,4-dihydropyrimidin-6-yl]methyl]-3-oxo-5,6,8,8a-tetrahydro-1H-imidazo[1,5-a]pyrazin-2-yl]-2,2-dimethyl-propanoic acid], in data set [1], the concentration giving a half-maximal response (EC50) is 11 nM. The 50% cytotoxic concentration (CC50) at 5 days in data set [2] stood at 73000 nM. The “Selectivity index (CC50/EC50)” value in data set [3] came out at 6636.

Consider `CCOC(=O)C1=C(CN2CCN3C(=O)N(C(C)C)C[C@@H]3[C@H]2C(=O)O)NC(c2nccs2)=N[C@H]1c1cccc(F)c1Cl` (single isomer, unassigned) [Example 84B], for which the “Lysa” value in data set [4] was found to be 770 µg/mL. Also, in data set [1], the concentration for a half-maximal effect (EC50) was 1 nM. Also, in data set [5], the “Human Microsomal Clearance” value turned out to be 3.6 mL/min/kg. In data set [2], this molecule yielded a 50% cytotoxic concentration (CC50) at 5 days above 100000 nM. For the same molecule, the “Selectivity index (CC50/EC50)” value in data set [3] is given as above 100000.

With `CCOC(=O)C1=C(CN2CCN3C(=O)N(Cc4ccc(C(=O)O)cc4)CC3C2)NC(c2nccs2)=N[C@H]1c1cccc(F)c1Cl` (stereo partly drawn) [Example 66, (R)-6-[2-(4-Carboxy-benzyl)-3-oxo-hexahydro-imidazo[1,5-a]pyrazin-7-ylmethyl]-4-(2-chloro-3-fluoro-phenyl)-2-thiazol-2-yl-1,4-dihydro-pyrimidine-5-carboxylic acid ethyl ester], the EC50 in data set [1] was found to be 4 nM. Also, the “Human Microsomal Clearance” value in data set [5] is reported as 7.1 mL/min/kg. Further, in data set [2], the midpoint of cytotoxicity, the CC50 at 5 days, lay at 60000 nM. Also, the “Selectivity index (CC50/EC50)” value in data set [3] is recorded as 15000.

In the case of `CCOC(=O)C1=C(CN2CCN3C(=O)N(C(C)C)C[C@@H]3C2)NC(c2nccs2)=N[C@H]1c1cccc(F)c1Cl` (single isomer, unassigned) [Example 104B], the EC50 in data set [1] was found to be 4 nM. The molecule further came in with a CC50 at 5 days in data set [2] of 27000 nM. Also, the “Selectivity index (CC50/EC50)” value in data set [3] was above 6750.

For `COC(=O)C1=C(CN2CCN3C(=O)NCC3(C(=O)OC)C2)NC(c2nccs2)=N[C@H]1c1ccc(F)cc1Cl` (stereo partly drawn) [Example 89, Methyl 7-[[(4R)-4-(2-chloro-4-fluoro-phenyl)-5-methoxycarbonyl-2-thiazol-2-yl-1,4-dihydropyrimidin-6-yl]methyl]-3-oxo-2,5,6,8-tetrahydro-1H-imidazo[1,5-a]pyrazine-8a-carboxylate], the EC50 in data set [1] is 7 nM. Moreover, in data set [2], the CC50 at 5 days was found to be 75000 nM. Also, the “Selectivity index (CC50/EC50)” value in data set [3] came out at 10714.

Turning to `CCOC(=O)C1=C(CN2CCN3C(=O)N(c4ccc(C(=O)O)cc4)C[C@@H]3C2)NC(c2nccs2)=N[C@H]1c1cccc(F)c1Cl` [Example 26, (R)-6-[(S)-2-(4-Carboxy-phenyl)-3-oxo-hexahydro-imidazo[1,5-a]pyrazin-7-ylmethyl]-4-(2-chloro-3-fluoro-phenyl)-2-thiazol-2-yl-1,4-dihydro-pyrimidine-5-carboxylic acid ethyl ester], the EC50 in data set [1] is 2 nM. Further, the CC50 at 5 days in data set [2] is 28000 nM. For the same molecule, in data set [3], the “Selectivity index (CC50/EC50)” value is recorded as 18620.

For `CCOC(=O)C1=C(CN2CCN3C(=O)N(CCO)CC3C2)NC(c2nccs2)=N[C@H]1c1cccc(F)c1Cl` (stereo partly drawn) [Example 70, Ethyl (4R)-4-(2-chloro-3-fluoro-phenyl)-6-[[2-(2-hydroxyethyl)-3-oxo-5,6,8,8a-tetrahydro-1H-imidazo[1,5-a]pyrazin-7-yl]methyl]-2-thiazol-2-yl-1,4-dihydropyrimidine-5-carboxylate], the 50% effective concentration (EC50) in data set [1] came to 5 nM. The CC50 at 5 days in data set [2] came out at 63000 nM. The “Selectivity index (CC50/EC50)” value in data set [3] turned out to be 12600.

As for `CCOC(=O)C1=C(CN2CCN3C(=O)N(CC(C)C)C[C@@H]3[C@H]2C(=O)O)NC(c2nccs2)=N[C@H]1c1cccc(F)c1Cl` (single isomer, unassigned) [Example 101B], the EC50 in data set [1] worked out at 0.8 nM. The “Human Microsomal Clearance” value in data set [5] worked out at 6.1 mL/min/kg. Further, in data set [2], the CC50 at 5 days was above 100000 nM. The “Selectivity index (CC50/EC50)” value in data set [3] is reported as above 100000.

As to `COC(=O)C1=C(CN2CCN3C(=O)N(C(C)C)C[C@@H]3[C@H]2C(=O)O)NC(c2nccs2)=N[C@H]1c1ccc(F)c(F)c1C` (single isomer, unassigned) [Example 85B], the “Lysa” value in data set [4] came out at 770 µg/mL. Moreover, the EC50 in data set [1] was found to be 6 nM. Further, the 50% cytotoxic concentration (CC50) at 5 days in data set [2] is above 100000 nM. Also, the “Selectivity index (CC50/EC50)” value in data set [3] is given as above 16667.

`CCOC(=O)C1=C(CN2CCN3C(=O)NC[C@@H]3C2)NC(c2nccs2)=N[C@H]1c1ccc(F)cc1Br` [Example 14, Ethyl (4R)-6-[[(8aR)-3-oxo-1,2,5,6,8,8a-hexahydroimidazo[1,5-a]pyrazin-7-yl]methyl]-4-(2-bromo-4-fluoro-phenyl)-2-thiazol-2-yl-1,4-dihydropyrimidine-5-carboxylate]: the EC50 in data set [1] worked out at 2 nM. In data set [2], the CC50 at 5 days is 23000 nM. In addition, the “Selectivity index (CC50/EC50)” value in data set [3] is given as 13016.

Regarding `CCOC(=O)C1=C(CN2CCN3C(=O)N(CC4(C(=O)O)CCC4)C[C@@H]3C2)NC(c2nccs2)=N[C@H]1c1cccc(F)c1Cl` [Example 60, 6-[(S)-2-(1-Carboxy-cyclobutylmethyl)-3-oxo-hexahydro-imidazo[1,5-a]pyrazin-7-ylmethyl]-4-((R)-2-chloro-3-fluoro-phenyl)-2-thiazol-2-yl-1,4-dihydro-pyrimidine-5-carboxylic acid ethyl ester], in data set [4] (phosphate buffer, pH 6.5, aqueous buffer, thermodynamic from solid), the solubility (thermodynamic) is 436 µg/mL (≈ 691 µM). For the same molecule, the EC50 in data set [1] amounted to 6 nM. This molecule yielded a CC50 at 5 days in data set [2] of 68000 nM. Moreover, the “Selectivity index (CC50/EC50)” value in data set [3] stood at 11333.

For `CCOC(=O)C1=C(CN2CCN3C(=O)N(CC(C)(C)O)C[C@@H]3C2)NC(c2nccs2)=N[C@H]1c1cccc(F)c1Cl` (single isomer, unassigned) [Example 106B], in data set [1], the EC50 worked out at 3 nM. Moreover, it took 65000 nM to reach half-maximal cytotoxicity in data set [2] (CC50 at 5 days). Besides, the “Selectivity index (CC50/EC50)” value in data set [3] is 21666.

As for `CCOC(=O)C1=C(CN2CCN3C(=O)N(CC4CC4)C[C@@H]3[C@H]2C(=O)O)NC(c2nccs2)=N[C@H]1c1cccc(F)c1Cl` (single isomer, unassigned) [Example 97B], the EC50 in data set [1] amounted to 0.9 nM. This molecule also displayed a CC50 at 5 days in data set [2] above 100000 nM. Further, the “Selectivity index (CC50/EC50)” value in data set [3] is listed as above 100000.

`CCCOC(=O)C1=C(CN2CCN3C(=O)N(CC(C)(C)C(=O)O)C[C@@H]3C2)NC(c2nccs2)=N[C@H]1c1cccc(F)c1Cl` [Example 93, 3-[(8aS)-7-[[(4R)-4-(2-chloro-3-fluoro-phenyl)-5-propoxycarbonyl-2-thiazol-2-yl-1,4-dihydropyrimidin-6-yl]methyl]-3-oxo-5,6,8,8a-tetrahydro-1H-imidazo[1,5-a]pyrazin-2-yl]-2,2-dimethyl-propanoic acid]: the EC50 in data set [1] was 12 nM. Besides, half-maximal cytotoxicity in data set [2] (CC50 at 5 days) was put at 86000 nM. Further, the “Selectivity index (CC50/EC50)” value in data set [3] is 7167.

In the case of `COC(=O)C1=C(CN2CCN3C(=O)OC[C@@H]3C2)NC(c2nccs2)=N[C@H]1c1ccc(F)cc1Cl` [Example 4, Methyl (4R)-6-[[(8aS)-3-oxo-5,6,8,8a-tetrahydro-1H-oxazolo[3,4-a]pyrazin-7-yl]methyl]-4-(2-chloro-4-fluoro-phenyl)-2-thiazol-2-yl-1,4-dihydropyrimidine-5-carboxylate], the 50% effective concentration (EC50) in data set [1] was 3 nM. The CC50 at 5 days in data set [2] worked out at 79000 nM. In addition, in data set [3], the “Selectivity index (CC50/EC50)” value worked out at 23872.
